Measurements: US20250367182A1, “METHOD FOR INDUCING IN-SITU REGENERATION OF MAMMAL AND USE THEREOF” (INSTITUTE OF ZOOLOGY, CHINESE ACADEMY OF SCIENCES, priority 2022, published 2025)
Entries after “also recorded” stand apart in the source; their conditions may differ. Like-named read-outs stand apart in the source and are kept apart here.

Tests used:
[1] = system: 2 mm diameter mouse ear hole; experiment: 2 mm ear hole trauma mouse model (ear hole closure); design: species or system C57BL/6 mice; conditions: in vivo
[2] = system: bleomycin-induced lung fibrosis injury; experiment: bleomycin-induced chronic injury model of lung fibrosis; format: in vivo, C57B1/6 mice
scalded skin = experiment: mouse skin scald model; format: in vivo, mice; conditions: CHX 20 mg/kg
[3] = system: 4 mm diameter mouse ear hole; design: species or system mice; conditions: in vivo
[4] = system: STING-TBK1-IRF3 signaling pathway / ISG genes in mouse primary fibroblasts and macrophages; experiment: CHX-induced ISG gene expression in primary cells (RNA-seq, Ribo-seq, qPCR, immunofluorescence); format: cell-based
[5] = system: protein translation process
[6] = CHX 20 mg/kg, lung function testing

COc1ccc(C[C@H]2NC[C@H](O)[C@H]2OC(C)=O)cc1 [Ani, Anisomycin]
healing of the 2 mm ear hole [1]: significantly promote the healing of the ear hole

C[C@@H]1C[C@@H]([C@H](O)CC2CC(=O)NC(=O)C2)C(=O)[C@@H](C)C1 [CHX, 4-((R)-2-((1S,3S,5S)-3,5-dimethyl-2-oxocyclohexyl)-2-hydroxyethyl)piperidine-2,6-dione]
survival rate ([2]; CHX 20 mg/kg i.p. every two days from 2 days after surgery, 18th day of treatment): 75% | body weight loss ([2]; CHX 20 mg/kg, ***P<0.001): significantly inhibited the body weight loss | lung fibrosis (HE staining and Sirius red staining) ([2]; CHX 20 mg/kg, after 14 days of treatment): significantly inhibited | body weight ([2]; CHX 20 mg/kg, after 15 days): ~85% | respiratory rate [2, 6]: significantly maintained normal | tidal volume [2, 6]: significantly maintained normal | tissue integrity and fibrosis (HE staining) ([2]; CHX administration started 9 days after bleomycin injury (more severe model)): significantly restored tissue integrity and reduced fibrosis | development-related genes (blood vessels, circulatory system), RNA-Seq ([2]; CHX-treated group): upregulated | genes related to respiratory system development, RNA-Seq ([2]; CHX-treated group): promoted the upregulation | fibrosis-related genes (extracellular matrix, collagen), RNA-Seq ([2]; CHX-treated group vs control after injury): significantly downregulate | collagen accumulation (Sirius red staining) (scalded skin): reduced collagen accumulation | skin tissue regeneration (histochemical staining) (scalded skin): significantly promoted the regeneration of epidermis, hair follicles, glands, dermis, and blood vessels | scar area (scalded skin; after 40 days of administration): significantly reduced scar area | HE staining of auricle tissue [1]: healed the tissue after damage and formed granulation tissue | HE staining of auricle tissue: healing of trauma [1]: completely healed | HE staining of wound site: regenerated tissues [1]: regeneration of tissues and tissue derivatives such as hair follicles, glands, cartilage, muscles and blood vessels | KI67 immunohistochemical staining of auricle tissue (basal cells) [1]: expressed a large amount of KI67 | closure of 2 mm ear hole wound [1]: completely closed | dose dependence of promotion of 2 mm ear hole healing [1]: dose-dependent | healing condition of 2 mm ear hole (photograph) [1]: completely closed | healing effect compared with Ani [1]: better | healing effect with different administration manners [1]: healing effects were produced; also recorded: different manners of administration had the effect of promoting regeneration | healing of the 2 mm ear hole [1]: significantly promote the healing of the ear hole | closure of 2 mm diameter ear holes ([1]; ip): promoted the closure | wound area of 4 mm ear hole [3]: significantly reduced | expression of classical ISGs (Mx2, Ifit1, Cxcl10, Ifih1), qPCR ([4]; CHX, fibroblasts and macrophages): upregulate the expression of classical ISGs | STING-TBK1-IRF3 signaling (perinuclear STING, nuclear IRF3), immunofluorescence ([4]; CHX, in vitro): activated ISGs by activating the STING-TBK1-IRF3 signaling pathway | number of genes upregulated at both transcriptional and translational levels in both cell types ([4]; CHX, mouse primary fibroblasts and macrophages, RNA-seq and Ribo-seq): 32 genes

Cc1nn(CC(F)(F)F)cc1Nc1ncc(Br)c(NCc2ccc(S(N)(=O)=O)cc2)n1 [GSK8612]
CHX-induced ear hole regeneration [1]: significantly inhibited | expression of ISG genes induced by CHX ([4]; GSK8612 5 μM, CHX 1 μg/ml): significantly inhibited the expression of ISG genes

O=C1N[C@@H]2C(=C[C@H](O)[C@@H](O)[C@H]2O)c2cc3c(c(O)c21)OCO3 [Narciclasine]
inhibition of protein translation (Puromycin incorporation) ([5]; CHX as control): could significantly inhibit the protein translation process | healing of 2 mm ear holes [1]: significantly promote the healing of 2 mm ear holes | regenerated tissues in closed ear holes (histochemical and Masson staining) [1]: could regenerate tissues such as hair follicles, glands, cartilage and muscles, and tissue derivatives

O=C1N[C@H]2[C@H](O)[C@H](O)[C@@H](O)[C@H](O)[C@@H]2c2cc3c(c(O)c21)OCO3 [Pancratistatin]
inhibition of protein translation (Puromycin incorporation) [5]: could significantly inhibit the protein translation process | closure of 2 mm ear hole [1]: completely closed | nature of the closure (HE and Masson staining) [1]: identified as a regeneration event
